Like-named read-outs stand apart in the source and are kept apart here.
How the values were obtained:
Assay type in all cases: cell-based, human
[1] = tested on: A549 cells; test: Cellular ROS level measurement (DCFH-DA); settings: A549, 5, 10 or 20 μM, 24 h
Source text: Intracellular reactive oxygen species (ROS) generation will result in mitochondrial membrane damage and further induce cell apoptosis and cell death. To determine whether compounds 14b and 14c could induce ROS generation, we treated A549 cells with different doses of these two compounds and measured the intracellular ROS levels using the DCFH-DA peroxide-sensitive fluorescent dye. When DCFH-DA entered the cells, it would hydrolyze into DCFH by esterase and then convert to non-diffusible green fluorescent DCF by oxidation.
FIGURE 6 Compounds 14b and 14c increased ROS levels. A549 cells were treated with different concentrations of 14b (A) and 14c (B) (5 μM, 10 μM, or 20 μM) for 24 h. ROS levels were stained using DCFH-DA, observed by confocal microscopy, and analyzed by ImageJ. Data are presented as mean ± SEM, *P < 0.05.
A549 cells were seeded at a density of 5 × 10^3 cells per well in a 96-well plate and allowed to adhere overnight. Compounds were then added at concentrations of 0, 5, 10, and 20 μM for 24 h. After treatment, the medium was removed, and fresh medium without FBS but containing 10 μM DCFH-DA was added and incubated in the dark for 30 min. The cells were washed three times with FBS-free medium to remove excess probe. ROS levels were then measured and imaged using confocal microscopy.

[2] = tested on: A549 cells; test: Western blot analysis of autophagy, DNA damage and cell cycle proteins; settings: A549, 5, 10, 20 μM, 48 h
Experimental: Next, we measured the expression of key proteins involved in autophagy, DNA damage, and cell cycle progression in 14b and 14c compound-exposed cells. After treatment for 48 h, cell proteins were collected and measured by Western blot. […] Proteins in cell cycle progression, including cyclin D, cyclin E, and β-catenin, however, were not affected in the 14 b compound exposure group compared with the control group. […] However, the key regulators involved in autophagy and cell cycle progression, such as LC3, cyclin D, cyclin E, and β-catenin, were not changed.
FIGURE 7 Compounds 14b and 14c affected DNA damage and autophagy. A549 cells were treated with different concentrations of 14b (A) and 14c (B) (5 μM, 10 μM, and 20 μM) for 48 h. Protein expressions were analyzed by Western blot. Top: Western blot of LC3, γ-H2AX, PARP, cyclin D, cyclin E, and β-catenin. Bottom: quantitative measurements relative to ACTIN. Data are presented as mean ± SEM, *P < 0.05.
The following antibodies were used for Western blot analysis: LC3, γ-H2AX, PARP, cyclin D, cyclin E, β-Catenin, and β-actin. Cells were treated with compounds (0, 5, 10, and 20 μM) for 48 h, and total cell proteins were extracted using RIPA buffer containing a protease/phosphatase inhibitor cocktail. Protein expression levels were measured and analyzed by Western blotting.

[3] = tested on: A549 cells; test: RT-PCR gene expression; settings: A549, 10 μM, 48 h
Experimental: To investigate the molecular mechanisms underlying the anti-tumor activity of 2H-1,4-benzoxazin-3(4H)-one-linked 1,2,3-triazole derivatives, we examined the expression of key genes involved in cell growth and death, including those related to DNA damage, oxidative stress, apoptosis, and autophagy (Figure 5). Gene expression was assessed in A549 cells treated with 14b or 14c (10 μM) for 48 h. […] The regulation of gene expression is a complex process regulated by many signaling pathways, and these signaling pathways interact with each other, all of which lead to a change in gene expression, not all in the same direction. Although the DNA damage gene p21 was decreased, another key gene, H2AX, was increased, which may stimulate DNA damage. These findings in A549 cells align with the results observed following 14b and 14c treatments.
FIGURE 5 Compounds 14b and 14c increased the gene expression. A549 cells were treated with 14b (A) and 14c (B) (10 μM) for 48 h. Gene expressions were detected by RT-PCR. Data are presented as mean ± SEM, *P < 0.05.
A549 cells were seeded in 12-well plates and treated with compounds for 48 h. Total RNA was extracted using TRIzol reagent, and RT-PCR was performed using PowerUp™ SYBR™ Green Master Mix. Gene expression was normalized to GAPDH. The results are expressed as mean ± SEM, and statistical significance was assessed using a two-tailed Student’s t-test (P < 0.05).

[4] = tested on: A549; test: CCK-8 cell viability assay and IC50 measurement; settings: Homo sapiens; for viability at 40 µM / inhibition at 40 µM: A549, 40 μM, 48 h; for viability at 40 µM: CCK-8, read-out: Cell viability (100%), 40 μM, 48 h, A549; for inhibition at 40 µM: read-out: inhibition rate
Experimental: In order to investigate the anticancer activity of new synthetic 1,4-benzoxazinone-linked 1,2,3-triazole compounds, we chose several cancer cell lines, including A549 (lung), Huh7 (liver), MCF-7 (breast), HCT-116 (colon), and SKOV3 (ovary), and measured cell viability using the CCK-8 assay. Cells were exposed to 40 μM of the compounds for 48 h, and then cell viability was determined. […] In addition, we used the reference drug gefitinib as a positive control and measured its cell viability on different cell lines. […] We used BEAS-2B cells as a normal cell line to determine the toxic effects of these compounds on normal cells. […] Furthermore, we evaluated the IC50 of these compounds in A549.
Human cancer cell lines A549, Huh7, MCF-7, HCT-116, and SKOV3 were obtained from ATCC. The cells were cultured in DMEM or RPMI 1640 medium supplemented with 10% FBS and 1% penicillin/streptomycin and incubated at 37°C in a CO2-humidified atmosphere.
Cells were cultured in DMEM or RPMI 1640 medium containing 10% FBS and 1% penicillin/streptomycin at 37°C and 5% CO2. The CCK-8 assay was performed on several human cancer cell lines, including A549, Huh7, MCF-7, HCT-116, and SKOV3, according to the manufacturer’s instructions. Cells were plated at a density of 5 × 10^3 cells per well in a 96-well plate. After 24 h of incubation, cells were treated with 40 μM compounds for 48 h. Cell viability was assessed by adding 10 μL of CCK-8 reagent, dissolved in the cell culture medium, and incubating for 1 h. Absorbance was measured at 450 nm using a microplate reader. IC50 values were determined using a dose-response curve with six concentrations (0, 10, 20, 40, 80, and 160 μM), and IC50 values were calculated using GraphPad Prism software.

[5] = A549, 48 h, read-out: IC50 48 h
[6] = A549, 72 h, read-out: IC50 72 h

SMILES	ROS generation [1]	PARP expression [2]	cell cycle progression proteins cyclin D, cyclin E, and β-catenin [2]	ratio of LC3II to LC3I / LC3 (autophagy) [2]	γ-H2AX protein expression [2]	ATG7 gene expression [3]	Nrf2 gene expression [3]	p53 gene expression [3]	IC50 [4, 5]	IC50 [4, 6]	viability at 40 µM [4]	inhibition at 40 µM [4]	Gpx4 gene expression [3]	H2AX gene expression [3]	apoptosis-related genes expression [3]
O=C1COc2ccc(NC(=O)c3cccc(-c4cn(-c5cccc(Br)c5)nn4)c3)cc2N1 [Compound 14b]	increased ROS generation	not changed	not affected	increased	induced	increased expression	increased expression	increased expression	25.1 ± 4.62 µM	7.59 ± 0.31 µM	27 ± 0.98%	> 50%			
O=C1COc2ccc(NC(=O)c3cccc(-c4cn(-c5ccccc5F)nn4)c3)cc2N1 [Compound 14c]	increased ROS generation		not changed	not changed	increased expression	upregulated			24.1 ± 3.83 µM	18.5 ± 0.59 µM	22.6 ± 0.88%	> 50%	upregulated	upregulated	either downregulated or unchanged

From paper PMC12202533, “Mechanistic Insights and Anti-cancer Activity of 2H-benzo[b][1,4]oxazin-3(4H)-one Linked 1,2,3-Triazoles in Human Cancer Cells” (Frontiers in Pharmacology, 2025)
